# Data as given in patent US5821046A, “RNA oligonucleotides that bind HIV tat protein” (RiboTargets Holdings PLC, priority 1990, dated 1998).
# Where two headings read alike, the source gives them in different places.
# Experiments:
# [1] = tested on: tat-dependent promoter activity of viral LTR carrying the TAR sequence; test: trans-activation CAT assay, HeLa cells cotransfected with LTR-CAT test plasmid and tat expression plasmid; assay type: cell-based; conditions: HeLa cells cotransfected with tat plasmid
# Source text: If tat binding to TAR is necessary for trans-activation, then viral LTRs carrying TAR sequences with low affinities for tat should always have reduced tat-dependent promoter activity in vivo. Site-directed mutagenesis experiments on TAR have shown that trans-activation requires sequences in both the U-rich bulge (10, 11) and the loop sequence (12, 27, 28). These observations have now been extended, using TAR mutations with known affinities for tat in transfection experiments, the results of which are shown in FIG. 8. The experiments used either HeLa cells (FIG. 8a-d) or a constitutive producer of tat, HeLa/C63/tat cells (FIG. 8e-f).
# The TAR sequences depicted in FIG. 3 [SEQ ID NO: 1-11] were introduced into a test plasmid, pD5-3-3, which carries a LTR and approximately 300 bases of 5' flanking sequences derived from the infectious proviral clone NL4 (29). The bacterial chloramphenicol acetyltransferase (CAT) gene and SV40 intron and terminator sequence from pSV2-CAT (30) was inserted downstream of TAR by cloning into the HindIII site at +77. Trans-activation was measured either by cotransfection of HeLa cells with the test plasmids and the tat expression plasmid pC63-4-1 (6) (panels a-d in […]), or by transfection of the test plasmids alone into HeLa/C63/tat (clone 9) cells (panels e-h). […]
# tat protein = test: competition filter binding assay with chemically synthesized RNA (Table 4); parameters: species or system HIV-1; conditions: for IC50: 40 nM tat, read-out: D1/2
# Method: Competition binding reactions (0.5ml) in TK buffer (50 mM Tris.HCl(pH7.9 at 0.5M and 22° G), 20 mM KCl ) included 10nM ^32 p labeled 59-mer (ca. 20,000 cpm) , 40nM tat protein, 5 ug/ml calf thymus DNA, 2 ug/ml yeast tRNA, 40 units of RNAsin (Promega) and varying concentrations (0-300 nM) of unlabeled competitor RNA (59-mer [SEQ ID NO: 1; ], 29-mer [SEQ ID NO: 12] or preannealed (slow cooled from 90° C.) 14-mer [SEQ ID NO: 14; nucleotides 2-15] and 17-mer [SEQ ID NO: 13; nucleotides 1- 17]). Binding was allowed to take place for 2-15 minutes on ice and each reaction was filtered through a twice prewashed (0.6 ml of ice-cold TK buffer) Millipore GS filter (2.5 cm disks, 0.22 um pore) and the filter washed with TK buffer (0.6 ml). Dried filters were counted by liquid scintillation. Results were plotted on a graph (FIG. 19) showing counts retained on the filter versus the concentration of competitor RNA added.
# Competition binding reactions (0.5 ml) in TK buffer included 10 nM duplex formed from ^32 P-labeled and unlabeled 29-mer (ca. 20,000 cpm) or 10 nM duplex formed from ^32 P-labeled and unlabeled 17-mer annealed to unlabeled 14-mer, 40 nM tat protein, 5 ug/ml calf thymus DNA, 2 ug/ml yeast tRNA and varying concentrations (0-120 nM) of unlabeled competitor RNA (29-mer or modified 29-mer (FIG. 21), or 17-mer +14-mer duplex or modified 7-mer +14-mer duplex (22, 23 and 24) and were carried out as described above.
# Competition binding reactions (0-5 ml) in TK buffer included 10 nM duplex formed from ^32 P-labelled (ca. 20,000 cpm) and unlabelled 18-mer [SEQ ID NO: 13] annealed to unlabelled 15-mer [SEQ ID NO: 14], 40 nM tat protein, 5 ug/ml calf thymus DNA, 2 ug/ml yeast TRNA and varying concentrations (0-120 nM) of unlabelled competitor RNA (59-mer [SEQ ID NO: 1] or 18-mer [SEQ ID NO: 13]+15-mer [SEQ ID NO: 14] duplex, or modified 18-mer [SEQ ID NO: […]
# [2] = tested on: transactivation by tat (CAT reporter plasmid D5-3-3); test: transactivation in vivo, altered TAR sequences in CAT reporter plasmid D5-3-3 (Tables 2 and 3); assay type: cell-based
# Method: The TAR sequences depicted in FIG. 3 [SEQ ID NO: 1-11] were introduced into a test plasmid, pD5-3-3, which carries a LTR and approximately 300 bases of 5' flanking sequences derived from the infectious proviral clone NL4 (29). The bacterial chloramphenicol acetyltransferase (CAT) gene and SV40 intron and terminator sequence from pSV2-CAT (30) was inserted downstream of TAR by cloning into the HindIII site at +77. Trans-activation was measured either by cotransfection of HeLa cells with the test plasmids and the tat expression plasmid pC63-4-1 (6) (panels a-d in FIG. 10), or by transfection of the test plasmids alone into HeLa/C63/tat (clone 9) cells (panels e-h).
# In these experiments, cells were plated at a density of 3×10^5 in a T25 flask and transfected by the calcium phosphate method (31). […] To ensure that CAT activity was measured in the linear range of the assay (30), at less than 50% conversion of chloramphenicol in its acetylated forms, for each transfection, three different aliquots containing from 5 to 70 ul extract were assayed for CAT activity. […] Reaction products were extracted with ethylacetate, separated by thin layer chromatography on silica plates and bands were counted in scintillation fluid to calculate the chloramphenicol conversion efficiency per 10 ul of extract. […]
substance,measurement,setting,value
G28 to C28: TAR point mutation expected to disrupt the top of the TAR stem/loop structure (GGGUCUCUCUGGUUAGACCAGAUUUGACCCUGGGAGCUCUCUGGCUAACUAGGGAACCC; chemistry not given here),trans-activation phenotype,[1],defective phenotype
"HIV-1 TAR (UUU): full length HIV-1 TAR RNA of 59 residues prepared by transcription, wild type, UUU bulge (GGGUCUCUCUGGUUAGACCAGAUUUGAGCCUGGGAGCUCUCUGGCUAACUAGGGAACCC; unmodified RNA) [reference compound]",Krel (59-mer),tat protein; 32P-end labelled 18-mer annealed to 15-mer,1.0
same,IC50,"tat protein; 32P-end labelled 18-mer annealed to 15-mer 10 nM, competitor 0-120 nM",18 nM
same,Krel (59-mer),tat protein; 32P-labeled 59-mer transcript 10 nM,1.0
same,IC50,"tat protein; 32P-labeled 59-mer transcript 10 nM, competitor 0-300 nM",40 nM
same,Krel (29 or 14 +17),"tat protein; relative to 14 +17 duplex, 32P-end labelled 18-mer annealed to 15-mer",2.8
same,Units CAT activity/500 ng plasmid,"[2]; Table 2, mutations in the U-rich bulge","14,400 Units CAT activity/500 ng plas"
same,Units CAT activity/500 ng plasmid,"[2]; Table 3, mutations in the stem surrounding the U-rich bulge","5,600 Units CAT activity/500 ng plas"
